According to patent US20240150293A1, “SPIROCYCLOHEXANE DERIVATIVES, PHARMACEUTICAL COMPOSITIONS CONTAINING THEM AND THEIR USES AS ANTI-APOPTOTIC INHIBITORS” (LES LABORATOIRES SERVIER, priority 2021, published 2024):
Like-named read-outs stand apart in the source and are kept apart here.

Experiments:
[1] = system: AMO-1 multiple myeloma xenograft; test: Quantification of the cleaved form of PARP in vivo, per os (Example C); design: species or system SCID mice; details: single dose per os, tumors recovered 16 hours after dosing
Experimental: The ability of the compounds of the invention to induce apoptosis was evaluated in vivo using the AMO-1 multiple myeloma xenograft.
1×10^7 cells were subcutaneously grafted into immunosuppressed SCID mice. 12-14 days later, when tumors had reached the appropriate volume, mice (3 per group) were treated once with the various compounds (per os, HEC 1%/Tween 80 99:1). Tumor samples were recovered 16 hours after dosing and lysed. Cleared lysates were used for cleaved PARP quantification (as a marker of apoptosis induction) using the Meso Scale Discovery (MSD) Elisa platform test. Results are expressed as the ratio between cleaved PARP in treated mice over control mice.

[2] = system: AMO-1 multiple myeloma xenografts; test: Anti-tumor activity in vivo (Example D); design: species or system SCID mice
Experimental: The anti-tumor activity of the compounds of the invention was evaluated using AMO-1 multiple myeloma xenografts.
1×10^7 cells were subcutaneously grafted into immunosuppressed SCID mice. 7-10 days later, when the tumor mass had reached an average volume of about 150 mm^3, mice were treated with the various compounds once a week for 2 weeks (per os, HEC 1%/Tween 80 99:1). Tumor size was measured three times per week using electronic calipers.
At the end of the treatment cycle (d9), tumor growth inhibition (TGI) was calculated using the formula: […]
wherein DTV (Delta Tumor Volume) at Dx was calculated as follows: […]
(Tumor Volume at Dx)−(Tumor Volume at Randomization).

[3] = target: Cy5-labelled Mcl1 (amino acids 171-321) C286S protein (UniProtKB Q07820) (Homo sapiens (Human), UniProt Q07820, C286S); test: Inhibition of Mcl-1 by the fluorescence quenching assay (Example A, Method B); format: binding
Outline: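 Cy5-labelled Mcl1 171-321 C286S (1 nM) quenched by TQ5WS-labelled PUMA peptide (10, 20 or 400 nM); displacement raises fluorescence (Ex 620/Em 680 nm). Buffer 10 mM HEPES, 150 mM NaCl, 0.05% Tween 20, pH 7.4, 5% DMSO; 2 h at room temperature, 11-point curves, IC50 converted to Ki (cKi/eKi).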

NCI-H929 cell lines = test: In vitro cytotoxicity, CellTiter-Glo (CTG) assay (Example B, Method B); format: cell-based; details: NCI-H929 cells, 48 h incubation, read-out: C50
Outline: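 NCI-H929 cells exposed to an 11-point compound series from 10 mM DMSO stocks (top final 30 μM) for 48 h at 37° C., 5% CO2. Viability measured as ATP by CellTiter-Glo luminescence; C50 is the concentration giving 50% cellular viability.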

[4] = system: H929 multiple myeloma tumor line; test: In vitro cytotoxicity, MTT assay (Example B, Method A); format: cell-based; details: Homo sapiens, NCI-H929, 48 h, H929 cells, 48 hours exposure, read-out: C50
Experimental: The cytotoxicity studies were carried out on the H929 multiple myeloma tumor line.
The cells are distributed onto microplates and exposed to the test compounds for 48 hours. The cell viability is then quantified by a colorimetric assay, the Microculture Tetrazolium Assay (Carmichael et al, Cancer Res. 1987, 47, 939-942).
The results are expressed in C50 which means concentration corresponding to […] of effect/inhibition.

[5] = 30 mpk per os once a week for 2 weeks
[6] = 60 mpk per os once a week for 2 weeks
[7] = 120 mpk per os once a week for 2 weeks

Chain of Cy5-labelled Mcl1 (amino acids 171-321) C286S protein (Q07820 171-321 C286S): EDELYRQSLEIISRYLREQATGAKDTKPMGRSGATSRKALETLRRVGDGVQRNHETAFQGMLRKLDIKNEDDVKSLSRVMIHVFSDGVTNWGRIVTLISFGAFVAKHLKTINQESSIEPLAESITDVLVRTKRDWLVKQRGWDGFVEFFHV

Ki [3] [nM] | Ki ([3]; Ki determined from IC50) [nM] | SMILES | Cleaved PARP (fold to control) ([1]; 30 mpk) | Cleaved PARP (fold to control) ([1]; 60 mpk) | % TGI (d9) [2, 5] [%] | % TGI (d9) [2, 6] [%] | IC50 (NCI-H929 cell lines; Homo sapiens, NCI-H929, 48 h) [nM] | Cleaved PARP (fold to control) ([1]; 120 mpk) | % TGI (d9) [2, 7] [%] | IC50 [4] [nM] | IC50 (NCI-H929 cell lines) [nM]
0.234 | – | COc1ccc2c(c1)[C@]1(CC[C@@](Nc3cccc(Cl)c3)(C(=O)O)CC1)[C@@H](C[C@@H](C)COc1ccnc3c1[C@H](C)CCC3)C2 [Example 781, (1r,2′S,4S)-4-(3-chloroanilino)-6′-methoxy-2′-[(2R)-2-methyl-3-{[(5R)-5-methyl-5,6,7,8-tetrahydroquinolin-4-yl]oxy}propyl]-2′,3′-dihydrospiro[cyclohexane-1,1′-indene]-4-carboxylic acid] | 11.6 fold to control | 4.5 fold to control | 76.4 | 107.8 | 82.3 | – | – | – | –
0.109 | – | C[C@@H](COc1ccnc2c1[C@H](C)CCC2)C[C@H]1Cc2cc(F)ccc2[C@]12CC[C@@](Nc1cccc(Cl)c1)(C(=O)O)CC2 [Example 768, (1r,2′S,4S)-4-(3-chloroanilino)-5′-fluoro-2′-[(2R)-2-methyl-3-{[(5R)-5-methyl-5,6,7,8-tetrahydroquinolin-4-yl]oxy}propyl]-2′,3′-dihydrospiro[cyclohexane-1,1′-indene]-4-carboxylic acid] | 0.8 fold to control | 15.4 fold to control | – | – | 49.6 | 30.3 fold to control | – | – | –
0.251 | – | COc1cc2c(cc1Cl)C[C@H](C[C@@H](C)COc1ccnc3c1[C@H](C)CCC3)[C@]21CC[C@](Nc2cccc(Cl)c2)(C(=O)O)CC1 [Example 815, (1r,2′S,4S)-5′-chloro-4-(3-chloroanilino)-6′-methoxy-2′-[(2R)-2-methyl-3-{[(5R)-5-methyl-5,6,7,8-tetrahydroquinolin-4-yl]oxy}propyl]-2′,3′-dihydrospiro[cyclohexane-1,1′-indene]-4-carboxylic acid] | – | 2.3 fold to control | – | 18.7 | 87.7 | 4.6 fold to control | 66.8 | – | –
0.0337 | – | C[C@@H](COc1ccnc2c1[C@H](C)CCC2)C[C@H]1Cc2cc3c(cc2[C@]12CC[C@@](Nc1cccc(Cl)c1)(C(=O)O)CC2)OCCO3 [Example 838, (1r,4S,7′S)-4-(3-chloroanilino)-7′-[(2R)-2-methyl-3-{[(5R)-5-methyl-5,6,7,8-tetrahydroquinolin-4-yl]oxy}propyl]-2′,3′,7′,8′-tetrahydrospiro[cyclohexane-1,6′-indeno[5,6-b][1,4]dioxine]-4-carboxylic acid] | 15 fold to control | 7.8 fold to control | – | 129.2 | 21.6 | – | – | – | –
– | 0.126 | C[C@@H](COc1ccnc2c1[C@H](C)CCC2)CN1Cc2cc3c(cc2[C@]12CC[C@@](Nc1cccc(Cl)c1)(C(=O)O)CC2)OCO3 [Example 44, (1s,4S)-4-(3-chloroanilino)-6′-[(2R)-2-methyl-3-{[(5R)-5-methyl-5,6,7,8-tetrahydroquinolin-4-yl]oxy}propyl]-6′,7′-dihydro-2′H-spiro[cyclohexane-1,5′-[1,3]dioxolo[4,5-f]isoindole]-4-carboxylic acid] | 0.7 fold to control | 0.7 fold to control | – | – | 53.4 | 1.4 fold to control | – | – | –
0.0803 | – | CC(C)Oc1ccc2c(c1)[C@]1(CC[C@@](Nc3cccc(Cl)c3)(C(=O)O)CC1)[C@@H](C[C@@H](C)COc1ccnc3c1[C@H](C)CCC3)C2 [Example 786, (1r,2′S,4S)-4-(3-chloroanilino)-2′-[(2R)-2-methyl-3-{[(5R)-5-methyl-5,6,7,8-tetrahydroquinolin-4-yl]oxy}propyl]-6′-[(propan-2-yl)oxy]-2′,3′-dihydrospiro[cyclohexane-1,1′-indene]-4-carboxylic acid] | – | – | 43.2 | 98.9 | 77.2 | – | – | – | –
0.0213 | – | COC(C)(C)c1ccc2c(c1)[C@]1(CC[C@@](Nc3cccc(Cl)c3)(C(=O)O)CC1)[C@@H](C[C@@H](C)COc1ccnc3c1[C@H](C)CCC3)C2 [Example 866, (1r,2′S,4S)-4-(3-chloroanilino)-6′-(2-methoxypropan-2-yl)-2′-[(2R)-2-methyl-3-{[(5R)-5-methyl-5,6,7,8-tetrahydroquinolin-4-yl]oxy}propyl]-2′,3′-dihydrospiro[cyclohexane-1,1′-indene]-4-carboxylic acid] | 1.2 fold to control | 6.5 fold to control | – | – | – | 6.3 fold to control | – | – | –
– | 0.355 | C[C@@H](COc1ccnc2c1[C@H](C)CCC2)CN1Cc2cc(F)ccc2[C@]12CC[C@@](Nc1cccc(Cl)c1)(C(=O)O)CC2 [Example 41, (1s,4S)-4-(3-chloroanilino)-5′-fluoro-2′-[(2R)-2-methyl-3-{[(5R)-5-methyl-5,6,7,8-tetrahydroquinolin-4-yl]oxy}propyl]-2′,3′-dihydrospiro[cyclohexane-1,1′-isoindole]-4-carboxylic acid] | – | – | 1 | 7.4 | 115 | – | 66.8 | – | –
– | 0.294 | C[C@@H](COc1ccnc2c1[C@H](C)CCC2)CN1Cc2cc(F)ccc2[C@]12CC[C@@](Nc1ccc(F)c(Cl)c1)(C(=O)O)CC2 [Example 42, (1s,4S)-4-(3-chloro-4-fluoroanilino)-5′-fluoro-2′-[(2R)-2-methyl-3-{[(5R)-5-methyl-5,6,7,8-tetrahydroquinolin-4-yl]oxy}propyl]-2′,3′-dihydrospiro[cyclohexane-1,1′-isoindole]-4-carboxylic acid] | – | – | – | 25.8 | – | 5 fold to control | 114.1 | 33.9 | –
0.362 | – | Cc1c(Cl)cccc1N[C@]1(C(=O)O)CC[C@]2(CC1)c1ccccc1C[C@@H]2C[C@@H](C)COc1ccnc2c1[C@H](C)CCC2 [Example 708, (1r,2′S,4S)-4-(3-chloro-2-methylanilino)-2′-[(2R)-2-methyl-3-{[(5R)-5-methyl-5,6,7,8-tetrahydroquinolin-4-yl]oxy}propyl]-2′,3′-dihydrospiro[cyclohexane-1,1′-indene]-4-carboxylic acid] | – | – | – | – | 107 | 12.6 fold to control | – | – | –
– | 0.0933 | C[C@@H](COc1ccnc2c1[C@H](C)CCC2)CN1Cc2cc3c(cc2[C@]12CC[C@@](Nc1ccc(F)c(Cl)c1)(C(=O)O)CC2)OCO3 [Example 47, (1s,4S)-4-(3-chloro-4-fluoroanilino)-6′-[(2R)-2-methyl-3-{[(5R)-5-methyl-5,6,7,8-tetrahydroquinolin-4-yl]oxy}propyl]-6′,7′-dihydro-2′H-spiro[cyclohexane-1,5′-[1,3]dioxolo[4,5-f]isoindole]-4-carboxylic acid] | – | – | – | – | 37.4 | – | – | – | –
64.9 | – | CC(OC(=O)N1CCOCC1)OC(=O)[C@]1(Nc2cccc(Cl)c2)CC[C@@]2(CC1)c1cc3c(cc1C[C@@H]2C[C@@H](C)COc1ccnc2c1[C@H](C)CCC2)OCO3 (stereo partly drawn) [Example 948, 1-({(1r,4S,6′S)-4-(3-chloroanilino)-6′-[(2R)-2-methyl-3-{[(5R)-5-methyl-5,6,7,8-tetrahydroquinolin-4-yl]oxy}propyl]-6′,7′-dihydro-2′H-spiro[cyclohexane-1,5′-indeno[5,6-d][1,3]dioxole]-4-carbonyl}oxy)ethyl morpholine-4-carboxylate] | – | – | – | – | 7120 | – | – | – | –
1.9 | – | CC(=O)c1cc(C)c2c(c1)[C@]1(CC[C@@](Nc3cccc(Cl)c3)(C(=O)O)CC1)C(C[C@@H](C)COc1ccnc3c1[C@H](C)CCC3)C2 (single isomer, unassigned) [Example 757] | – | – | – | – | – | – | – | – | 200
